The assay deals with BDF1 mice, B16 melanoma ip, median survival T/C. Description: NCI In Vivo Anticancer Drug Screen. Data for tumor model B16 Melanoma (intraperitoneal) in B6D2F1 (BDF1) mice. The note with it: endpoint: median survival time, higher = longer survival. The essentials: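 Transplantable tumor model; survival or tumor size measured; reported as T/C, treated over vehicle control.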
Where [1] appears, read: dose: 3.12 mg/kg/injection, schedule: Q01DX009 (ip), vehicle: saline.
Setting [2] is: dose: 12.5 mg/kg/injection, schedule: Q01DX009 (ip), vehicle: saline.
The mark [3] stands for this setting: dose: 25.0 mg/kg/injection, schedule: Q01DX009 (ip), vehicle: saline.
Where [4] appears, read: dose: 6.25 mg/kg/injection, schedule: Q01DX009 (ip), vehicle: saline.
[5] abbreviates: dose: 50.0 mg/kg/injection, schedule: Q01DX009 (ip), vehicle: saline with Tween-80.
[6] abbreviates: dose: 100.0 mg/kg/injection, schedule: Q01DX009 (ip), vehicle: saline with Tween-80.
Where [7] appears, read: dose: 200.0 mg/kg/injection, schedule: Q01DX009 (ip), vehicle: saline with Tween-80.
Setting [8] is: dose: 400.0 mg/kg/injection, schedule: Q01DX009 (ip), vehicle: saline with Tween-80.

The structures appear in SMILES notation. “And” between values parts separate entries of the source, which are not always exact repeats. Equal entries are not always repeated. Toxic doses and inconclusive results are not listed.

As for `NNCCc1ccccc1`, the T/C is, setting by setting: under setting [1], 94 % of control; under setting [2], 117 % of control; under setting [3], 100 % of control; (dose: 50.0 mg/kg/injection, schedule: Q01DX009 (ip), vehicle: saline) 97 % of control.
Regarding `CCOc1ccc(-c2nc3ccc(-c4nc5ccc(N6CCN(C)CC6)cc5[nH]4)cc3[nH]2)cc1`, the T/C under setting [1] is 106 % of control, the T/C under setting [4] is 113 % of control and the T/C under setting [2] is 112 % of control.
In the case of `C=C1C(=O)OC2CC1C(OC(=O)/C=C/c1ccccc1)C/C(C)=C/CC/C(C)=C/CCC2(C)O` (stereo not drawn), the T/C (dose: 12.5 mg/kg/injection, schedule: Q01DX009 (ip), vehicle: Klucel (hydroxypropylcellulose) (HPC)) is 105 % of control; the T/C (dose: 25.0 mg/kg/injection, schedule: Q01DX009 (ip), vehicle: Klucel (hydroxypropylcellulose) (HPC)) was 92 % of control; the T/C (dose: 50.0 mg/kg/injection, schedule: Q01DX009 (ip), vehicle: Klucel (hydroxypropylcellulose) (HPC)) is 101 % of control.
On to `O=NN(CCCl)C(=O)NC1OC(CO)C(O)C(O)C1O` (stereo not drawn), for which the T/C by setting is: (dose: 0.16 mg/kg/injection, schedule: Q01DX009 (ip), vehicle: saline) 107 % of control; (dose: 0.31 mg/kg/injection, schedule: Q01DX009 (ip), vehicle: saline) 111 % of control and 116 % of control; (dose: 0.62 mg/kg/injection, schedule: Q01DX009 (ip), vehicle: saline) 108 % of control; (dose: 1.25 mg/kg/injection, schedule: Q01DX009 (ip), vehicle: saline) 178 % of control; (dose: 2.5 mg/kg/injection, schedule: Q01DX009 (ip), vehicle: saline) 188 % of control; (dose: 5.0 mg/kg/injection, schedule: Q01DX009 (ip), vehicle: saline) 193 % of control.
Turning to `NC1=NC(=O)NC1(c1ccccc1)c1ccccc1`, the T/C reads like this: under setting [5], 98 % of control; under setting [6], 109 % of control; under setting [7], 97 % of control; under setting [8], 93 % of control.
For `Nc1ncn(C2OC(CO)C(O)C2O)c(=O)n1` (stereo not drawn), the T/C reads like this: (dose: 0.25 mg/kg/injection, schedule: Q01DX009 (ip), vehicle: suspension in saline) 90 % of control; (dose: 0.5 mg/kg/injection, schedule: Q01DX009 (ip), vehicle: suspension in saline) 112 % of control; (dose: 0.75 mg/kg/injection, schedule: Q01DX009 (ip), vehicle: saline with Tween-80) 118 % of control; (dose: 1.0 mg/kg/injection, schedule: Q01DX009 (ip), vehicle: suspension in saline) 91 % of control; (dose: 1.5 mg/kg/injection, schedule: Q01DX009 (ip), vehicle: saline with Tween-80) 124 % of control; (dose: 2.0 mg/kg/injection, schedule: Q01DX009 (ip), vehicle: suspension in saline) 92 % of control.
With `O=C(Cc1ccccc1)NC/C=N/O`, the T/C is, setting by setting: under setting [5], 107 % of control; under setting [6], 102 % of control; under setting [7], 93 % of control; under setting [8], 100 % of control.
Consider `CCCC(Cc1ccccc1)N1CCCC1` (stereo not drawn), for which the T/C runs as follows: (dose: 1.56 mg/kg/injection, schedule: Q01DX009 (ip), vehicle: saline) 105 % of control; under setting [1], 100 % of control; under setting [4], 92 % of control; under setting [2], 115 % of control; under setting [3], 102 % of control.
`COc1cc2cc3c4cc(OC)c(OC)cc4cc[n+]3c(C)c2cc1OC` (tested in a mixture with another compound): the T/C is 106 % of control under setting [4]; 88 % of control (dose: 6.25 mg/kg/injection, schedule: Q04DX003 (ip), vehicle: saline with Tween-80); 107 % of control (dose: 6.25 mg/kg/injection, schedule: Q04DX003 (ip), vehicle: saline); 90 % of control and 91 % of control (dose: 8.0 mg/kg/injection, schedule: Q01DX009 (ip), vehicle: Klucel (hydroxypropylcellulose) (HPC)); 100 % of control and 109 % of control (dose: 8.0 mg/kg/injection, schedule: Q01DX009 (ip), vehicle: clinical formulation); 99 % of control and 107 % of control (dose: 8.0 mg/kg/injection, schedule: Q01DX009 (ip), vehicle: other). Further, the T/C (dose: 8.0 mg/kg/injection, schedule: Q01DX009 (ip), vehicle: water) was 87 % of control; the T/C under setting [2] is 93 % of control; the T/C (dose: 12.5 mg/kg/injection, schedule: Q01DX009 (ip), vehicle: water) was 95 % of control; the T/C (dose: 12.5 mg/kg/injection, schedule: Q04DX003 (ip), vehicle: saline with Tween-80) was 100 % of control; the T/C (dose: 12.5 mg/kg/injection, schedule: Q04DX003 (ip), vehicle: saline) was 105 % of control; the T/C (dose: 16.0 mg/kg/injection, schedule: Q01DX009 (ip), vehicle: Klucel (hydroxypropylcellulose) (HPC)) is 91 % of control and 92 % of control and 96 % of control. Besides, the T/C runs as follows: (dose: 16.0 mg/kg/injection, schedule: Q01DX009 (ip), vehicle: clinical formulation) 94 % of control and 106 % of control; (dose: 16.0 mg/kg/injection, schedule: Q01DX009 (ip), vehicle: other) 97 % of control and 111 % of control and 123 % of control; (dose: 16.0 mg/kg/injection, schedule: Q01DX009 (ip), vehicle: water) 96 % of control and 106 % of control; under setting [3], 87 % of control; (dose: 25.0 mg/kg/injection, schedule: Q01DX009 (ip), vehicle: water) 109 % of control; (dose: 25.0 mg/kg/injection, schedule: Q04DX003 (ip), vehicle: saline with Tween-80) 102 % of control. The T/C was 102 % of control (dose: 25.0 mg/kg/injection, schedule: Q04DX003 (ip), vehicle: saline); 90 % of control and 93 % of control and 95 % of control (dose: 32.0 mg/kg/injection, schedule: Q01DX009 (ip), vehicle: Klucel (hydroxypropylcellulose) (HPC)); 96 % of control and 105 % of control (dose: 32.0 mg/kg/injection, schedule: Q01DX009 (ip), vehicle: clinical formulation); 103 % of control and 105 % of control (2×) (dose: 32.0 mg/kg/injection, schedule: Q01DX009 (ip), vehicle: other); 94 % of control and 111 % of control (dose: 32.0 mg/kg/injection, schedule: Q01DX009 (ip), vehicle: water); 105 % of control (dose: 33.0 mg/kg/injection, schedule: Q01DX009 (ip), vehicle: saline with Tween-80). Also, the T/C under setting [5] is 110 % of control; the T/C (dose: 50.0 mg/kg/injection, schedule: Q01DX009 (ip), vehicle: water) was 93 % of control; the T/C (dose: 50.0 mg/kg/injection, schedule: Q04DX003 (ip), vehicle: saline with Tween-80) was 97 % of control; the T/C (dose: 50.0 mg/kg/injection, schedule: Q04DX003 (ip), vehicle: saline) is 100 % of control; the T/C (dose: 64.0 mg/kg/injection, schedule: Q01DX009 (ip), vehicle: Klucel (hydroxypropylcellulose) (HPC)) is 89 % of control and 91 % of control and 94 % of control; the T/C (dose: 64.0 mg/kg/injection, schedule: Q01DX009 (ip), vehicle: clinical formulation) is 104 % of control. In addition, the T/C is 100 % of control and 104 % of control (dose: 64.0 mg/kg/injection, schedule: Q01DX009 (ip), vehicle: other); 101 % of control (dose: 75.0 mg/kg/injection, schedule: Q01DX009 (ip), vehicle: saline with Tween-80); 106 % of control (dose: 100.0 mg/kg/injection, schedule: Q01DX009 (ip), vehicle: saline); 91 % of control (dose: 100.0 mg/kg/injection, schedule: Q01DX009 (ip), vehicle: water); 94 % of control (dose: 100.0 mg/kg/injection, schedule: Q04DX003 (ip), vehicle: saline); 91 % of control and 93 % of control (dose: 128.0 mg/kg/injection, schedule: Q01DX009 (ip), vehicle: Klucel (hydroxypropylcellulose) (HPC)). Moreover, the T/C is, setting by setting: (dose: 200.0 mg/kg/injection, schedule: Q04DX003 (ip), vehicle: saline with Tween-80) 88 % of control; (dose: 200.0 mg/kg/injection, schedule: Q04DX003 (ip), vehicle: saline) 100 % of control.
As for `CCOC(=O)C1(C(=O)OCC)COC(=O)C1`, the T/C runs as follows: (dose: 16.0 mg/kg/injection, schedule: Q01DX009 (ip), vehicle: saline with Tween-80) 101 % of control; (dose: 32.0 mg/kg/injection, schedule: Q01DX009 (ip), vehicle: saline with Tween-80) 101 % of control; (dose: 64.0 mg/kg/injection, schedule: Q01DX009 (ip), vehicle: saline with Tween-80) 101 % of control; (dose: 128.0 mg/kg/injection, schedule: Q01DX009 (ip), vehicle: saline with Tween-80) 104 % of control; (dose: 256.0 mg/kg/injection, schedule: Q01DX009 (ip), vehicle: saline with Tween-80) 97 % of control.

Values taken from PubChem BioAssay AID192 (DTP/NCI, 2004).
